In patent US20260294864A1, “PHARMACEUTICAL COMPOSITION FOR THE TREATMENT AND PREVENTION OF HPV” (NP1 SRL, priority 2022, published 2026):

Experiments:
[1] = tested on: HPV transformed cells; assay: Antiproliferative effect on HPV transformed cells (cell line not stated); type: cell-based, human; details: summary statement, isolated compound
Description: (§1) For antiproliferative effect cells were seeded in 96-well microplates at 1000 cells/per well (i.e.: 30 cell/mm^2), a density allowing exponential growth rate for the subsequent 8-day incubation. After overnight adhesion cell monolayers were washed and replenished with fresh media with different testing molecules, plain medium served as cell growth control.
(§2) Cell growth was then monitored by automated INCUCTE S3 imaging Systems. Images were acquired at 12-hours intervals. The analysis parameters were as follows: segmentation adjustment=0.9; hole fill <7,000 μm^2; adjusted pixel=0.

[2] = tested on: Siha cells; assay: Anti-clonogenic activity on SiHa cells (plating efficiency assay / live cell imaging); type: cell-based, human; details: for inhibition at 25 µM: Homo sapiens, single compound, 24 hours treatment then wash-out, FIG. 12, read-out: clonal inhibition; for inhibition at 25 µM / end-point anti-clonal effect versus control untreated cells: SiHa; for end-point anti-clonal effect versus control untreated cells: FIG. 6-8
Description: In this experiment Kaempferol and Apigenin were administered to Siha cells at decremental concentrations, either in combination or alone, as shown in the topographical map (in panel C). […] Histograms in Panel B depict the number of colonies per well as evaluated by visual inspection and count.
The Histograms in Panel B depict the number of colonies per well as evaluated by visual inspection and count. • In Panel C a topographical map of plate treatments. Each condition was assayed in duplicate.
Kaempferol, Galangin, Luteolin and their combination were administered to SiHa cells at the concentrations of 25 μM each and of 12,5/12,5/6,25 μM for their combination. Treatments were allowed to stay on cells either for 2 or 4/8/16/24 hours. After that, treatments were washed out, cells washed two times with PBS, replenished with fresh medium and the anti-clonal effect was then monitored by live cell image analysis.
(§3) A total of 6 cell lines, outlined in Table 3, were used for this study. The cell lines were obtained from Research Centres of cell biology in Italy, United Kingdom and Germany. This research raised no ethical concern being based on entirely in vitro experiments using no patients' derived information or material. In compliance with National and International ethical rules, no informed consent is needed.
(§4) HeLa cells are the oldest continuous cell lines and were originally derived from a HPV18 positive metastatic cervical carcinoma (Scherer W F et al 1953). Siha cells are an epithelioid like cell line derived from a HPV16-positive invasive cervical squamous carcinoma (Friedel F et al 1970). Ca-Ski cells are a line harboring multiple copy of transcriptionally active HPV16 genomes (Baker C C et al 1984). Both Hela and Siha were a kind gift of prof MS Campo, The Beatson Institute for Cancer Research, Glasgow, Scotland. These two cell lines because of their versatility and ease of use were used for most of experiments reported. Ca-Ski cells were obtained through the courtesy of prof. Matthias Durst, at the Deutsch Krebsforschungzentrum—Heidelberg, FRG. These cells used together with Siha provide a model for the genetic instability and variability of cervical cancers. HK-168 is an immortalized, non-tumorigenic, continuous cell line derived from human skin keratinocytes in vitro transformed with whole HPV16 genome (De Marco F et al 2007). This cell line is reputed to recapitulate le biological features of transformed dysplastic cells and was used in preliminary experiments to set the experimental dosages and conditions. The ME-180 cells are a cell line harboring a few, transcriptionally active, copies of HPV68 and provide an in vitro model for dysplastic/neoplastic lesions induced by HPV with Intermediate oncogenic Risk (Yee C C et al 1985). The HaCaT cells, derived from a solar skin lesion by Petra Boukamp et al (1988) are here used as an in vitro equivalent of Ultra-Violet induced pre-neoplastic epithelial cells to rule out possible direct toxic effects of polyphenols. Both HaCaT and ME-180, were kindly donated by Prof. Matthias Durst. Hela, Siha, Ca-Ski, ME-180 and HaCaT were all grown in high glucose DMEM supplemented with 10% fetal calf serum (FCS). The HK-168 cells, which retained the ability to terminally differentiate under high Ca^2+ and FCS concentrations, were grown in K-SFM, a chemically defined medium supplemented with human EGF and bovine pituitary extract (ThermoFisher Scientific, Life Technologies, Monza—MI). Each cell line was sub-cultured twice a week at the appropriate split ratio according to the specific proliferative index. In no case antibiotics or antimycotics were added to the culture media. For the present study, all cell lines were retrieved from an in-house cell archive facility.

[3] = tested on: Siha cells; assay: Antiproliferative effect on Siha cells, live cell analysis; type: cell-based, human; details: Siha 1000 cells/well; for antiproliferative effect: 50 μM, FIG. 2
Description: FIG. 2: live cell analysis of RNPs antiproliferative effect. Siha cells were seeded at 1000 cells/well in a 96 well plate and allowed to adhere overnight. The plate was then washed twice with PBS and replenished with 100 microliter/well fresh medium plus 50 μM of each compound. Images were taken every 12 hours; Growth curves were drawn plotting the percentage of confluence versus time. […] In fact, their growth curves outline a single spindle completely overlapping and masking the one of control untreated cells. Conversely, a distinct anti-proliferative effect is evident in panel B- where the growth curves of RNP 9 Kaempferol (solid squares), RNP 12 Luteolin (solid diamonds), RNP 16 Apigenin (solid circles) and control untreated cells (solid stars) are depicted. […] Each point represents the mean of six independent replicas. Bar width represents the Standard Deviation (SD). Consistent results were also obtained by HeLa and ME-180 cells
as §1, §2
Data for growth curves, anti-clonal and Antiproliferative assays were obtained from at least three independent experiments. Each data point of quantitative anti-proliferative or anti-clonal experiments represents the mean (±SD) of eight independent replicates. Data were analyzed and plotted using Prism 6.0 software (GraphPad Software, San Diego, CA).

[4] = tested on: HPV transformed cells; assay: Anti-clonal effect on HPV transformed cells (cell line not stated); type: cell-based, human; details: for IC50: Homo sapiens, minimal concentration reducing 50% of CFU of treated versus control, read-out: CID50 (50% clonal inhibitory dose), isolated polyphenols; for IC50 / IRR (inhibitory relative rate) / anticlonogenic / anti-clonal effect: isolated compound; for IRR (inhibitory relative rate): reverse ratio of CID50 to the reference CID50 of Quercetin (=1)
Description: The inhibitory relative rate (IRR) (fourth column) provides an efficacy ranking of molecules.
The anti-clonogenic activity was evaluated both by the current standard qualitative plating efficiency assay and by quantitative live cell imaging analysis (INCUCYTE S3 Live Cell Analysis Imaging System—Sartorius Welwyn Garden City, Hertfordshire, UK). For qualitative plating efficiency assay cells were seeded at ‘clonal’ density (i.e., 0.5 cell/mm^2) either in medium containing the testing molecules or with plain medium and incubated without any further manipulation. After 9-14 days, according to the cell line specific proliferative index, the cultures were decanted and stained with 0.2% CV/methanol for 5 min at room temperature. All conditions were tested in triplicates in a 6-well culture plate. The anti-clonogenic activity of the treatments was evaluated using the colony forming units (CFU) of treated versus control cultures. The minimal concentration which could reduce 50% of the CFU of treated versus control culture was defined as colony-forming Inhibitory concentration (CID50). For quantitative evaluation cells were seeded in 96-well microplates at the above density and condition and allowed to grow the subsequent 8-day incubation in the INCUCYTE S3 Imaging System. Images were acquired at 12-hours intervals and colony formation and percentage of growth area covered (confluency) were then monitored through automated image analysis. The analysis parameters were as follows: segmentation adjustment=0.4; hole fill <5,000 μm^2; adjusted pixel=−2.

[5] = tested on: HeLa cells; assay: Anti-clonogenic activity on HeLa cells (plating efficiency assay / live cell imaging); type: cell-based, human; details: for Anti-clonal effect: isolated, FIG. 1; for anti-clonal effect at concentrations above CID50: higher concentrations than CID50, HeLa
Description: Panel C and D: diagrammatic topographical maps of treatments and growth conditions on plates A and B respectively.
Panel A. Hela cells were challenged with serial twofold dilutions of 50 μM Luteolin (in columns 1-6) and 100 μM Galangin (columns 7-10). Hela control untreated cells in columns 11-12.
as §3, §4
The anti-clonogenic activity was evaluated both by the current standard qualitative plating efficiency assay and by quantitative live cell imaging analysis ([…] S3 Live Cell Analysis Imaging System—Sartorius Welwyn Garden City, Hertfordshire, UK).

[6] = tested on: PC3 prostate cancer cells; details: PC3 cells (Lansky E P et al 2005); cited from earlier work
[7] = tested on: glioma cells; details: wound-healing and Boyden Chamber assays (Lu J et al 2010); cited from earlier work
[8] = tested on: gastric cancer cells; details: wound-healing and Boyden Chamber assays (Ho H H et al 2010); cited from earlier work

O=c1c(O)c(-c2ccc(O)cc2)oc2cc(O)cc(O)c12 [Kaempferol]
antiproliferative effect [1]: sharp anticlonogenic and antiproliferative effect | clonal efficiency versus control untreated cells ([2]; 12.5 μM, alone, Siha, FIG. 4): no difference to control untreated cells | inhibition at 25 µM [2]: ~50% | antiproliferative effect [3]: distinct, although milder effect | inhibition at 50 µM ([3]; Homo sapiens, FIG. 2, read-out: suppression of proliferation): ~40% | IC50 [4]: 25 µM | IRR (inhibitory relative rate) [4]: 2 | anticlonogenic / anti-clonal effect ([4]; summary statement): sharp anticlonogenic and antiproliferative effect | Anti-clonal effect ([5]; 50 μM, HeLa): almost complete suppression of clonal activity

O=c1cc(-c2ccc(O)c(O)c2)oc2cc(O)cc(O)c12 [Luteolin]
antiproliferative effect [1]: sharp anticlonogenic and antiproliferative effect | end-point anti-clonal effect versus control untreated cells ([2]; 6.25 μM, alone): no difference to control untreated cells | inhibition at 25 µM [2]: ~50% | antiproliferative effect [3]: almost complete suppression of proliferation | antiproliferative effect ([3]; listed as luteolin): sharp antiproliferative effect | IC50 [4]: 6.25 µM | IRR (inhibitory relative rate) [4]: 8 | anticlonogenic / anti-clonal effect ([4]; summary statement): sharp anticlonogenic and antiproliferative effect | Anti-clonal effect ([5]; 50 μM, HeLa): almost complete suppression of clonal activity | IC50 ([5]; Homo sapiens, HeLa, serial twofold dilutions (Luteolin from 50 μM, Galangin from 100 μM), live cell image analysis, FIG. 3, read-out: CID50 (50% clonal inhibitory dose)): 6.25 µM | inhibition at up to 50 µM ([5]; Homo sapiens, wells D:1-6, serial twofold dilutions of 50 μM, HeLa, FIG. 3, read-out: anti-clonal titration, inhibition in wells D:1-6): ~50% | anti-clonal effect at concentrations above CID50 ([5]; FIG. 3): completely suppressive | anti-clonal titration, inhibition in wells C:1-6 ([5]; wells C:1-6, serial twofold dilutions of 50 μM, HeLa, FIG. 3): almost complete inhibition

O=C(O)/C=C/c1ccc(O)c(O)c1 [Caffeic acid]
clonal inhibition in combination ([4]; combined with Galangin or Quercetin, summary statement): a certain grade of clonal inhibition | anticlonogenic / anti-clonal effect ([4]; summary statement): devoid of any direct activity | anticlonogenic / anti-clonal effect ([4]; summary statement, listed as Caffeic): devoid of. any direct anticlonogenic activity | clonal inhibition in combination with Apigenin ([5]; 50 μM combined with Apigenin 25 μM, HeLa, FIG. 9-11): almost complete clonal inhibition | clonal inhibition in combination with Galangin ([5]; 50 μM combined with Galangin 12.5 μM, HeLa, FIG. 9-10): almost complete clonal inhibition | end point clonal assay, clonal inhibition alone ([5]; 50 μM, administered alone, HeLa, FIG. 9-11): neither of them induced any effect | Anti-clonal effect ([5]; 50 μM, HeLa): devoid of any significant anticlonogenic effect | synergistic effect with Galangine and Apigenin ([5]; in association, HeLa, FIG. 9): synergistic effect | reduction of invasiveness [6]: 50%

O=C(O)c1cc(O)c(O)c(O)c1 [Gallic acid]
migration of glioma cells [7]: reduce the migration | migration of gastric cancer cells [8]: reduce the migration

O=c1c(O)c(-c2ccccc2)oc2cc(O)cc(O)c12 [Galangin]
antiproliferative effect [1]: sharp anticlonogenic and antiproliferative effect | end-point anti-clonal effect versus control untreated cells ([2]; 25.0 μM, alone): no difference to control untreated cells | inhibition at 25 µM [2]: ~50% | IC50 [4]: 25 µM | IRR (inhibitory relative rate) [4]: 2 | anticlonogenic / anti-clonal effect ([4]; summary statement): sharp anticlonogenic and antiproliferative effect | Anti-clonal effect ([5]; 50 μM, HeLa): almost complete suppression of clonal activity | anti-clonal effect at concentrations above CID50 ([5]; FIG. 3): completely suppressive
